Experimental findings from patent publication US8410112B2, “Compounds useful as inhibitors of ATR kinase” (Vertex Pharmaceuticals Incorporated, priority 2008, dated 2013) are described below.

Structures are written as SMILES.

In one test the target is T1, intracellular ATR (Homo sapiens, UniProt Q13535).
T1 construct: endogenous in cells; host or cells: HT29
The test can be described thus: Cellular ATR Inhibition Assay (H2AX phosphorylation, immunofluorescence microscopy). The format is cell-based. Conditions: HT29 cells, 2 mM hydroxyurea, percentage of phosphorylated H2AX Ser139-positive nuclei. The procedure:
Compounds were screened for their ability to inhibit intracellular ATR using an immunofluorescence microscopy assay to detect phosphorylation of the ATR substrate histone H2AX in hydroxyurea treated cells. HT29 cells were plated at 14,000 cells per well in 96-well black imaging plates (BD 353219) in McCoy's 5A media (Sigma M8403) supplemented with 10% foetal bovine serum (JRH Biosciences 12003), Penicillin/Streptomycin solution diluted 1:100 (Sigma P7539), and 2 mM L-glumtamine (Sigma G7513), and allowed to adhere overnight at 37° C. in 5% CO2. Compounds were then added to the cell media from a final concentration of 25 μM in 3-fold serial dilutions and the cells were incubated at 37° C. in 5% CO2. After 15 min, hydroxyurea (Sigma H8627) was added to a final concentration of 2 mM.
After 45 min of treatment with hydroxyurea, the cells were washed in PBS, fixed for 10 min in 4% formaldehyde diluted in PBS (Polysciences Inc 18814), washed in 0.2% Tween-20 in PBS (wash buffer), and permeabilised for 10 min in 0.5% Triton X-100 in PBS, all at room temperature. The cells were then washed once in wash buffer and blocked for 30 min at room temperature in 10% goat serum (Sigma G9023) diluted in wash buffer (block buffer). To detect H2AX phosphorylation levels, the cells were then incubated for 1 h at room temperature in primary antibody (mouse monoclonal anti-phosphorylated histone H2AX Ser139 antibody; Upstate 05-636) diluted 1:250 in block buffer. The cells were then washed five times in wash buffer before incubation for 1 h at room temperature in the dark in a mixture of secondary antibody (goat anti-mouse Alexa Fluor 488 conjugated antibody; Invitrogen A11029) and Hoechst stain (Invitrogen H3570); diluted 1:500 and 1:5000, respectively, in wash buffer. The cells were then washed five times in wash buffer and finally 100 ul PBS was added to each well before imaging.
Cells were imaged for Alexa Fluor 488 and Hoechst intensity using the BD Pathway 855 Bioimager and Attovision software (BD Biosciences, Version 1.6/855) to quantify phosphorylated H2AX Ser139 and DNA staining, respectively. The percentage of phosphorylated H2AX-positive nuclei in a montage of 9 images at 20× magnification was then calculated for each well using BD Image Data Explorer software (BD Biosciences Version 2.2.15). Phosphorylated H2AX-positive nuclei were defined as Hoechst-positive regions of interest containing Alexa Fluor 488 intensity at 1.75-fold the average Alexa Fluor 488 intensity in cells not treated with hydroxyurea. The percentage of H2AX positive nuclei was finally plotted against concentration for each compound and IC50s for intracellular ATR inhibition were determined using Prism software (GraphPad Prism version 3.0cx for Macintosh, GraphPad Software, San Diego Calif., USA).

Another test concerns the target T2, full-length ATR (Homo sapiens, UniProt Q13535).
T2 construct: in the presence of 5 nM full-length ATR
Put plainly: ATR Inhibition Assay (radioactive-phosphate incorporation). The test is classed as biochemical. Conditions: Ki(app); 5 nM full-length ATR, 10 μM ATP, 800 μM target peptide, 25° C. The gist of the method:
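Buffer was 50 mM Tris/HCl pH 7.5, 10 mM MgCl2, 1 mM DTT, with 5 nM enzyme, 10 μM [γ-33P]ATP and 800 μM target peptide at 25 °C. Compound was pre-incubated 10 min before ATP start, and the reaction was stopped after 24 h. Phosphocellulose filter capture; Ki(app) came from non-linear regression of background-corrected initial rates.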

T1 sequence (Q13535 whole entry): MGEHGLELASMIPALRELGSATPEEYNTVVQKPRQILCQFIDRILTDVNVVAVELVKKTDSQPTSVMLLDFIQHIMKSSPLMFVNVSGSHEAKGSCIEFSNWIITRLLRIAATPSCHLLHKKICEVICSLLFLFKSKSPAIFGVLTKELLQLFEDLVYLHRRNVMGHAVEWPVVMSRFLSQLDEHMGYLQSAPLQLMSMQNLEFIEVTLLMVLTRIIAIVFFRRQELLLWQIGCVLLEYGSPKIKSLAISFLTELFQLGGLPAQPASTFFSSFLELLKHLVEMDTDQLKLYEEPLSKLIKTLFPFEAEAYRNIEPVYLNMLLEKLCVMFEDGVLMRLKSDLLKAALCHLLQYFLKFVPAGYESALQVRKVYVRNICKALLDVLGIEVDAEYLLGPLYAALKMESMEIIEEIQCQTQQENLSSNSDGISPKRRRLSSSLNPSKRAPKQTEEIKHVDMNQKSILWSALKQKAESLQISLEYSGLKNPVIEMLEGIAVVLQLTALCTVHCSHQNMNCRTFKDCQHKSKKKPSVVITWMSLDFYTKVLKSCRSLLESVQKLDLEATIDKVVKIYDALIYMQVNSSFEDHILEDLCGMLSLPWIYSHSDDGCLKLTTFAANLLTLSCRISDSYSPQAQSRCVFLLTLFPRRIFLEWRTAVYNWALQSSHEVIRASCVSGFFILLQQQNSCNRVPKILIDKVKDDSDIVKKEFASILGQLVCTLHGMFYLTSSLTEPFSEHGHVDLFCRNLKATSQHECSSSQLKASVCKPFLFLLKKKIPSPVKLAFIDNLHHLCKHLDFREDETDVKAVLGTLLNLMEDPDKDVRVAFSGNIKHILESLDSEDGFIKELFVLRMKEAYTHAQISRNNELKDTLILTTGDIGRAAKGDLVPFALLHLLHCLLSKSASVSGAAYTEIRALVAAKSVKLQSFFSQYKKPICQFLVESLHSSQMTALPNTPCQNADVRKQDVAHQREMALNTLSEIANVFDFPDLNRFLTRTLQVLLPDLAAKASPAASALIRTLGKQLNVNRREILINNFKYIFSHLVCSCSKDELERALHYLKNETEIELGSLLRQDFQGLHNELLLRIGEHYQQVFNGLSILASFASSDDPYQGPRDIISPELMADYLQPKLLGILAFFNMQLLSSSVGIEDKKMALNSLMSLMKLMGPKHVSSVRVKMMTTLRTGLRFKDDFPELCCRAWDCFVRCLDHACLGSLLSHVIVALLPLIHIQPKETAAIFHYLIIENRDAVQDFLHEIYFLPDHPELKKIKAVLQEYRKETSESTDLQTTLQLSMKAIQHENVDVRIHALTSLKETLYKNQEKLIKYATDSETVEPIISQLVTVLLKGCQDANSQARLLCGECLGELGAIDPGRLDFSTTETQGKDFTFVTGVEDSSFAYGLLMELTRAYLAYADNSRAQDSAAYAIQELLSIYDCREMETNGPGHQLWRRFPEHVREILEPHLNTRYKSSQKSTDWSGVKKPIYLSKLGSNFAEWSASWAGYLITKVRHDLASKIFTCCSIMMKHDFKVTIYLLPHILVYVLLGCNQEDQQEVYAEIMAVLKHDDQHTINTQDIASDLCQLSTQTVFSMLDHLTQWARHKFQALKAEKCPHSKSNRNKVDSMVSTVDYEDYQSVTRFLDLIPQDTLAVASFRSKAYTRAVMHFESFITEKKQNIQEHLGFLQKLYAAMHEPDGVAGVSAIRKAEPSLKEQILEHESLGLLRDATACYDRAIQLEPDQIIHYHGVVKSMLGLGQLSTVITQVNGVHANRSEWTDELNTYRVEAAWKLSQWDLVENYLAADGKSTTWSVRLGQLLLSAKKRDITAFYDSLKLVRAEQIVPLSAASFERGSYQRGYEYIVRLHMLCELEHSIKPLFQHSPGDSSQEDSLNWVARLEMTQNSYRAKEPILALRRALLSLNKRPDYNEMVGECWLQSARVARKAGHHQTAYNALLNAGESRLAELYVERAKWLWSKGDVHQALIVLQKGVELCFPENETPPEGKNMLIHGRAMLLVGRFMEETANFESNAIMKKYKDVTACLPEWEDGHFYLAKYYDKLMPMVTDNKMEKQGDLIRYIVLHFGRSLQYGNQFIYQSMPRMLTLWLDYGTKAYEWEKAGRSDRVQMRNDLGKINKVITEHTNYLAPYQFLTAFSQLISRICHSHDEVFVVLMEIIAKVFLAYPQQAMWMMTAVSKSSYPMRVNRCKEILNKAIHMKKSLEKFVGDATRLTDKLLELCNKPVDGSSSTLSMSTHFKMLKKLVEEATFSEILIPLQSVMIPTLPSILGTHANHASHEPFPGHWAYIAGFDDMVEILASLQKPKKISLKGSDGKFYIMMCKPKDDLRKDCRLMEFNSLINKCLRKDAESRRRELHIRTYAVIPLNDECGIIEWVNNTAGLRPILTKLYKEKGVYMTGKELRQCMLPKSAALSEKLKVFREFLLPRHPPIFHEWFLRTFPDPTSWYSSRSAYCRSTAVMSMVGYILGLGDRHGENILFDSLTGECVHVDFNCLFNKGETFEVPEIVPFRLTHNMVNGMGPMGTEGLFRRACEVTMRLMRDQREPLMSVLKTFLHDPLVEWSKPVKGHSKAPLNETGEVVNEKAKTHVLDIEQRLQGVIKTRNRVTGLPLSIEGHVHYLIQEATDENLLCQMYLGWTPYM
T1 sequence (Q8WXE1 whole entry partner): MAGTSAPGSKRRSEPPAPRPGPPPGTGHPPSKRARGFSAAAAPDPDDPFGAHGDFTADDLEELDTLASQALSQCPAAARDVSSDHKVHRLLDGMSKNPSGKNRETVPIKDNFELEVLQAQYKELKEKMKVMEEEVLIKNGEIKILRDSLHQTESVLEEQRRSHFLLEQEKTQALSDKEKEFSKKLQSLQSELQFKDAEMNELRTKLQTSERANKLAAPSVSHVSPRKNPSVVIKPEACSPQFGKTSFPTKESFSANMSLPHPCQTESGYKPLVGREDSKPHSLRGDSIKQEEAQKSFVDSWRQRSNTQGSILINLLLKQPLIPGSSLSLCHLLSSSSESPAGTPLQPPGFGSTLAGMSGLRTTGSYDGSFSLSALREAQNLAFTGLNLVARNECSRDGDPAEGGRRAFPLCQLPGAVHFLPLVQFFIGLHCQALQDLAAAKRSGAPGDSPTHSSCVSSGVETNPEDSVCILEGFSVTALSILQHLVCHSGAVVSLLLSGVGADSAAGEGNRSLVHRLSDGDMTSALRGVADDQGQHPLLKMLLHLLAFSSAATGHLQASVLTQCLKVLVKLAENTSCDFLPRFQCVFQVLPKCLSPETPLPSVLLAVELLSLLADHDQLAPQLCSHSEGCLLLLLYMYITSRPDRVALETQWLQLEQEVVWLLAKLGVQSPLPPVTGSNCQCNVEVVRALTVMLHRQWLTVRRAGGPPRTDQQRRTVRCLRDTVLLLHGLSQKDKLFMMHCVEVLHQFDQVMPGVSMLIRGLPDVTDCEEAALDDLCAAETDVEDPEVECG
T2 sequence (Q13535 whole entry): as the sequence (Q13535 whole entry) above

Take `CN(C)S(=O)(=O)N1CC=C(c2cnc(N)c(-c3nc4cccnc4[nH]3)n2)CC1` [Compound I-26, 4-(5-amino-6-(3H-imidazo[4,5-b]pyridin-2-yl)pyrazin-2-yl)-N,N-dimethyl-5,6-dihydropyridine-1(2H)-sulfonamide]: the IC50 against intracellular ATR is 1 to 5 µM. Further, at full-length ATR, the Ki is < 100 nM.

In turn, `CCS(=O)(=O)N1CCN(c2cnc(N)c(-c3nc4ccccc4[nH]3)n2)CC1` [Compound I-16, 3-(1H-benzo[d]imidazol-2-yl)-5-(4-(ethylsulfonyl)piperazin-1-yl)pyrazin-2-amine] yielded an IC50 against intracellular ATR of 10 to 30 µM. In addition, the Ki at full-length ATR is 100 to 1000 nM.

As for `Cc1ccc2nc(-c3nc(-n4ccc(=O)cc4)cnc3N)[nH]c2c1` [Compound I-24, 1-(5-amino-6-(6-methyl-1H-benzo[d]imidazol-2-yl)pyrazin-2-yl)pyridin-4(1H)-one], the half-inhibitory concentration (IC50) on intracellular ATR was in the range of 1 to 5 µM. Also, the Ki on full-length ATR is < 100 nM.

As for `CCS(=O)(=O)N1CC=C(c2cnc(N)c(-c3nc4cccnc4[nH]3)n2)CC1` [Compound I-27, 5-(1-(ethylsulfonyl)-1,2,3,6-tetrahydropyridin-4-yl)-3-(3H-imidazo[4,5-b]pyridin-2-yl)pyrazin-2-amine], the IC50 against intracellular ATR was < 1 µM. For the same molecule, the Ki at full-length ATR was < 100 nM.

`CCS(=O)(=O)N1CC=C(c2cnc(N)c(-c3nnc(-c4ccccc4)o3)n2)CC1` [Compound I-28, 5-(1-(ethylsulfonyl)-1,2,3,6-tetrahydropyridin-4-yl)-3-(5-phenyl-1,3,4-oxadiazol-2-yl)pyrazin-2-amine]: at intracellular ATR, the IC50 was 5 to 10 µM. The Ki on full-length ATR is < 100 nM.

Broadly, the IC50 is the concentration at which inhibition is half-maximal. A higher IC50 goes with weaker potency in that assay.
